Patent US20060034781A1, “PERORAL PREPARATION FOR PREVENTION OR TREATMENT OF ATOPIC DERMATATIS” (Kyowa Hakko Kogyo Co., Ltd., priority 2002, published 2006)

How the values were obtained:
Format in all cases: in vivo
Settings in all cases: oral, in feed (0.25% N-acetyl-trans-4-hydroxy-L-proline or 0.5% trans-4-hydroxy-L-proline) versus control feed
IgE = IgE concentration in serum of atopic dermatitis model mice (ELISA)
Protocol: (§1) For the test, NC/Nga mice (five weeks age; purchased from Charles River) were used. The breeding conditions were that the mice were bred under room temperature of 22±2° C. and humidity of 35±15% and that feed and water were freely taken by them.
(§2) The test feed was prepared by well mixing of powdery feed CE-2 (manufactured by Nippon Claire) with 0.25% by weight of N-acetyl-trans-4-hydroxy-L-proline or 0.50% by weight of trans-4-hydroxy-L-proline. The feed containing N-acetyl-trans-4-hydroxy-L-proline was named a feed 1 while the feed containing trans-4-hydroxy-L-proline was named a feed 2 and, as a control feed, a powdery feed CE-2 was used.
(§3) With regard to the hapten, a product prepared by dissolving 1.5% by weight of dinitrochlorobenzene (DNCB) in a solution comprising 20% by volume of olive oil and 80% by volume of acetone was used.
(§4) Three mice were used for each of the test groups, and 20 μl of 1.5% DNCB was respectively applied onto both side of the right auricle of each of the mice after nine days, ten days, thirteen days and fourteen days from initiation of administration of the test feed.
With regard to the model mice where atopic dermatitis appeared used in Test Example 1, blood was collected from right thigh on the 27th day from initiation of administration of the test feed. […]

mast cells = assay: Mast cell density at auricle of atopic dermatitis model mice (Toluidine Blue staining)
Protocol: as §1, §2, §3, §4
With regard to the model mice where atopic dermatitis appeared used in Test Example 1, tissues at auricle were frozen and embedded in Tissue-Tek O. C. T. Compound (manufactured by Sakura Seiki K. K.) on the 27th day from initiation of administration of the test feed. […]

NC/Nga mice = assay: Suppression of auricular edema in DNCB-treated atopic dermatitis model mice
Protocol: as §1, §2
With regard to the hapten, a product prepared by dissolving 1.5% by weight of dinitrochlorobenzene (DNCB) in a solution comprising 20% by volume of olive oil and 80% by volume of acetone was used. […]
Starting from the day when application of the hapten started, thickness of the right auricle was measured using Pescock Dial Thickness Gauge (manufactured by Ozaki Seisakusho) one daily.
An increasing amount of auricular edema was calculated according to the following formula 1 as a relative value to an increasing amount of auricular edema of a mouse which was not treated with DNCB and the result is shown in Table 2. […]

Row | SMILES | increase in IgE concentration in serum by application of DNCB (result in words) (IgE) | increase in mast cell density by application of DNCB (result in words) (mast cells) | auricular edema induced by DNCB (result in words) (NC/Nga mice)
1 | CC(=O)N1C[C@H](O)C[C@H]1C(=O)O [N-acetyl-trans-4-hydroxy-L-proline] | significantly suppressed | apparently suppressed | apparently suppressed
2 | O=C(O)[C@@H]1C[C@@H](O)CN1 [trans-4-hydroxy-L-proline] | significantly suppressed | apparently suppressed | apparently suppressed
